Patent US7303740B2, “Methods for the diagnosis and treatment of breast cancer” (Albert Einstein College of Medicine of Yeshiva University, priority 2000, dated 2007)

Experiments:
[1] = system: mgNIS; assay: Immunoblot analysis of mgNIS in MG from ovariectomized nubile mice treated with hormones; assay type: in vivo; conditions: for mgNIS expression in mammary tissue (immunoblot): three consecutive days
Protocol: FIG. 4. Immunoblot analysis of MG from ovariectomized nubile mice treated with various hormones. Membrane fractions isolated from MG of nubile mice were either sham treated with PBS (lane 1) or treated for three consecutive days with: progesterone (1 I.U.) (lane 2); 17-β-estradiol (1 μg) (lane 3); 17-β-estradiol and progesterone (1 I.U.) (lane 4); oxytocin (1 I.U.) (lane 5); oxytocin and 17-β-estradiol (lane 6); prolactin (10 I.U.) (lane 7); oxytocin, prolactin, and 17-β-estradiol (lane 8); and progesterone together with oxytocin, prolactin, and 17-β-estradiol (lane 9). Isolated membrane fractions were electrophoresed and electrotransferred onto nitrocellulose, followed by immunoblot analysis with anti-NIS Ab.
Oxytocin (α-hypophamine), prolactin, progesterone (4-pregnene-3,20-dione), and 17-β-estradiol (1,3,5[10]-estratriene-3,17-β-diol) were purchased from Sigma, St. Louis, Mo. Either ovariectomized or surgically unmodified 8- to 10-week-old CD1 (ICR) IBR mice (Charles River Laboratories, Wilmington, Mass.) were treated once a day with subcutaneous injections of 1 I.U. of oxytocin, 10 I.U. of prolactin, 1 μg 17-β-estradiol, or 1 I.U. of progesterone (intraperitoneally) for three consecutive days, either individually or in the indicated combination. A final injection was done on the fourth day; two hours later, mammary glands were removed for analysis. Oxytocin and prolactin were dissolved in sterile distilled water, 17-β-estradiol was dissolved in 90% alcohol, and progesterone was dissolved in sesame oil (Sigma, St. Louis, Mo.). Except for progesterone, indicated doses of hormones were injected after being taken in 200 μl sterile PBS solution. Progesterone (final concentration 10 mg/ml) was injected into 100 μl of sesame oil. Control animals which were sham treated with sesame oil were systematically included in experiments when progesterone was administered. At least three identically-treated animals were analyzed in each case.
Sprague-Dawley female rats (over 8 weeks old) at different physiological stages, and hormonally-treated CD1 (ICR) BR female mice, were sacrificed in a CO2 chamber before excision of thoracic, abdominal, and inguinal MG. Organs, which were removed from mice or rats were blended with a polytron homogenizer (Brinkmann Instruments, Westbury, N.Y.) for 1 min, and homogenized with a stirrer-type glass-teflon homogenizer (Caframo-Wiarton, Ontario, Canada) (Levy et al., 1997). Membrane fractions were prepared in the presence of protease inhibitors, as described above (Kaminsky et al., 1994). SDS-PAGE electrophoresis and electroblotting to nitrocellulose were performed as described in Levy et al. (1997). All samples were diluted 1:2 with loading buffer (Harlow and Lane, 1988) and heated at 37° C. for 30 min prior to electrophoresis. […]

[2] = system: mgNIS; assay: mgNIS expression (immunoblot) and 125I- transport in MG of hormonally treated intact nubile mice; assay type: in vivo; conditions: intact nubile animals
Protocol: (§1) FIG. 3. In vivo effect of oxytocin on functional expression of mgNIS in nubile mice. (A) Radioiodide transport in MG of oxytocin-treated nubile mice. Seven- to eight-week-old female mice were treated subcutaneously with phosphate buffered saline solution (PBS), 10 I.U. of prolactin (PRL), 1 I.U. of oxytocin (OXY), or prolactin and oxytocin (PRL+OXY) for three days. Then, 1 μCi of ^125I^− was injected intraperitoneally. […] (B) Immunoblot analysis of MG from hormonally-treated mice. […] Isolated membrane fractions were electrophoresed, electrotransferred onto nitrocellulose, and analyzed by immunoblots using anti-NIS Ab. […] Perchlorate-inhibited accumulation of ^99mTcO4^− was detected in stomach and MG of OXY-treated animals. (D) Quantification of ^99mTcO4^− accumulation in various organs from OXY- or PBS-treated mice. Tracer accumulation was monitored using image analysis software (ImageQuant, Macintosh). […] Counts were divided by the weight of the organs (cpm/mg tissue), and standardized by dividing them by cpm detected in the blood (cpm/mg blood) of each animal. ^99mTcO4^− accumulation in the organs from: PBS-treated animals (open bars); OXY-treated animals (dotted bars); and OXY-treated animals after ^99mTcO4^−+perchlorate injection (dark bars). […]

[3] = target: T1, mgNIS (Mus musculus, UniProt Q99PN0); assay: Ex vivo scintigraphic imaging of 99mTcO4- accumulation in organs of oxytocin-treated nubile mice; design: Membrane fractions isolated from MG of nubile female mice; from tissue; host or cells: CD1 (ICR) mice (intact, ovariectomized, gestating) and MMTV-ras / MMTV-neu transgenic mice: mammary gland, mammary adenocarcinoma, stomach; conditions: organs removed 30 min after tracer
T1 sequence (Q99PN0 1-618): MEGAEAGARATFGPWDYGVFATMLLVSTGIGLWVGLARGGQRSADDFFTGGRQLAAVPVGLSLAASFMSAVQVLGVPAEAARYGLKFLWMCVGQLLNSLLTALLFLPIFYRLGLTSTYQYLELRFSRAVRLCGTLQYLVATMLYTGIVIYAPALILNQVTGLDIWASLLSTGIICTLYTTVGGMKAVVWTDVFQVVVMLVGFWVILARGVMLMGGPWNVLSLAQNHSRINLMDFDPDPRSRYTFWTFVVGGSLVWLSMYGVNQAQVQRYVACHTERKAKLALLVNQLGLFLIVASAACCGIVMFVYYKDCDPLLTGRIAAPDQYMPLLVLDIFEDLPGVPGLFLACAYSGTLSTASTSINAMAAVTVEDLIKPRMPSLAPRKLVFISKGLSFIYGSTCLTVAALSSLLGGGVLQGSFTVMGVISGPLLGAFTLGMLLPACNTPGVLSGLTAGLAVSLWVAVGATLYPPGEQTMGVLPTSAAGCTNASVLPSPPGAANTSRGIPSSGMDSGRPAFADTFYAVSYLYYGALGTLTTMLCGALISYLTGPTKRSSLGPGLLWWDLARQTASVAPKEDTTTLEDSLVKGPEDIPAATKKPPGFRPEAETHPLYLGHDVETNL
Protocol: as §1

## CC(=O)[C@H]1CC[C@H]2[C@@H]3CCC4=CC(=O)CC[C@]4(C)[C@H]3CC[C@]12C [progesterone, 4-pregnene-3,20-dione]
[1]
  effect on 17-β-estradiol enhancement of mgNIS expression: did not interfere
  mgNIS expression when added to the 17-β-estradiol/oxytocin/prolactin combination: significantly decreased

## C[C@]12CC[C@@H]3c4ccc(O)cc4CC[C@H]3[C@@H]1CC[C@@H]2O [17-β-estradiol, 1,3,5[10]-estratriene-3,17-β-diol]
[1]
  mgNIS expression in mammary tissue (immunoblot): clearly discernible increase

## CC[C@H](C)[C@@H]1NC(=O)[C@H](Cc2ccc(O)cc2)NC(=O)[C@@H](N)CSSC[C@@H](C(=O)N2CCC[C@H]2C(=O)N[C@@H](CC(C)C)C(=O)NCC(N)=O)NC(=O)[C@H](CC(N)=O)NC(=O)[C@H](CCC(N)=O)NC1=O [oxytocin, α-hypophamine]
[2]; 1 I.U. s.c. for three days
  mgNIS expression in MG (immunoblot), leading to 125I- transport: induced mgNIS expression
[1]
  mgNIS expression in mammary tissue (immunoblot): did not cause an increase
[3]
  perchlorate-inhibited 99mTcO4- accumulation in MGs versus sham-treated mice: significantly higher

B1: prolactin: a glycoprotein released from the anterior pituitary (protein, UniProt P01236 29-227, looked up)
Prolactin: LPICPGGAARCQVTLRDLFDRAVVLSHYIHNLSSEMFSEFDKRYTHGRGFITKAINSCHTSSLATPEDKEQAQQMNQKDFLSLIVSILRSWNEPLYHLVTEVRGMQEAPEAILSKAVEIEEQTKRLLEGMELIVSQVHPETKENEIYPVWSGLPSLQMADEESRLSAYYNLLHCLRRDSHKIDNYLKLLKCRIIHNNNC
[2]; 10 I.U. prolactin with 1 I.U. oxytocin
  effect on upregulation of mgNIS by oxytocin: antagonized
